Measured values: ChEMBL document CHEMBL4732115, “Discovery of novel cell-penetrating and tumor-targeting peptide-drug conjugate (PDC) for programmable delivery of paclitaxel and cancer treatment” (Eur J Med Chem, 2021)
pIC50: −log10 of the molar value. Calls of active or inactive are those of the source. The calls are words filed in the database; no cut-off is given here. Peptide text beside a SMILES is read from it. * marks the point of attachment. X1 = CC(=O)O[C@H]1C(=O)[C@@]2(C)[C@H]([C@H](OC(=O)c3ccccc3)[C@]3(O)C[C@H](OC(=O)[C@H](OC(=O)OCCS*)[C@@H](NC(=O)c4ccccc4)c4ccccc4)C(C)=C1C3(C)C)[C@]1(OC(C)=O)CO[C@@H]1C[C@@H]2O; X2 = NCCCC[C@H](N*)C(=O)NC(=O)C1CCC(=O)N1

Assays:
[1] = Drug conversion in kidney of BALB/c nude mouse xenografted with human MCF7 cells assessed as PTX formation at 8 to 12 umol/kg, ip measured after 2 hrs by LC-MS analysis; assay type: ADME, organism-based; conditions: in vivo, dose 8-12 µmol/kg
[2] = Neurotoxicity in BALB/c mouse assessed as increase in pain sensitivity at 12 umol/kg, ip administered every two days for 14 days by hot-plate test; assay type: toxicity, organism-based; conditions: in vivo, 336 h, dose 12 µmol/kg, time 14 day
[3] = Myelosuppression in BALB/c mouse assessed as change in lymphocyte count at 12 umol/kg, ip administered every two days for 14 days measured post last dose; assay type: ADME, organism-based; conditions: in vivo, 336 h, dose 12 µmol/kg, time 14 day
MCF7 [4] = assay: Induction of apoptosis in human MCF7 cells at IC50 measured after 4 hrs by Annexin-V FITC/propidium iodide staining based flow cytometry; assay type: functional, cell-based
MCF7 [5] = assay: Antitumor activity against human MCF7 cells xenografted in BALB/c nude mouse assessed as reduction in tumor weight at 12 umol/kg, ip administered every two days for two weeks relative to control; assay type: functional; set-up: scale not given: the % may be the effect or the level left; conditions: dose 12 µmol/kg; time 2 weeks
[6] = Stability of compound in PBS buffer at 0.5 uM measured after 2 hrs by LC-MS analysis; assay type: physicochemical
MCF7 [7] = assay: Cytotoxicity against human MCF7 cells assessed as reduction in cell viability measured after 48 hrs in presence of MMP inhibitor ilomastat and LHRH by MTT assay; assay type: functional, cell-based
[8] = Neurotoxicity in BALB/c mouse assessed as change in glutamate level at 12 umol/kg, ip administered every two days for 14 days measured post last dose by LC-MS analysis; assay type: toxicity, organism-based; conditions: in vivo, 336 h, dose 12 µmol/kg, time 14 day
[9] = molecular target: T1, 72 kDa type IV collagenase (Homo sapiens, UniProt P08253); assay: Drug metabolism in PBS buffer assessed as MMP2 (unknown origin)-mediated PTX formation at 0.5 uM incubated for 2 hrs followed by GSH addition and measured after 2 hrs by LC-MS analysis; assay type: ADME; conditions: 4 h
T1 sequence (P08253 whole entry): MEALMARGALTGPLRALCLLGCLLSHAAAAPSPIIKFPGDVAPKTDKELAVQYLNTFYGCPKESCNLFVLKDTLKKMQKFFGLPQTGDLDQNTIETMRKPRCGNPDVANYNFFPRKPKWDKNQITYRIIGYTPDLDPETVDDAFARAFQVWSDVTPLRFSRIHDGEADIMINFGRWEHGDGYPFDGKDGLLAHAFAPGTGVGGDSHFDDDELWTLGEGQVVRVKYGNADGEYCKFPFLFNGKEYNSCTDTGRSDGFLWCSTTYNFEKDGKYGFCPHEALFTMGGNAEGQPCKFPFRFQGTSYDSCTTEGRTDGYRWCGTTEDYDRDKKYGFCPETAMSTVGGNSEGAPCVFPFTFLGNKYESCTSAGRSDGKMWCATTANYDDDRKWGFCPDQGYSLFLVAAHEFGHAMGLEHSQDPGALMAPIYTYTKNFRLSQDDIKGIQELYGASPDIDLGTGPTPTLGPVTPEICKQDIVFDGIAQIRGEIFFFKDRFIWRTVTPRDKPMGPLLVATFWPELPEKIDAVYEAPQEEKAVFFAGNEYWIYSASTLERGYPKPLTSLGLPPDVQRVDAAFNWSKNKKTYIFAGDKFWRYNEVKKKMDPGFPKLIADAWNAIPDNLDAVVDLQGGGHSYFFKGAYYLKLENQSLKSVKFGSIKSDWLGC

HEK293 = assay: Cytotoxicity against HEK293 cells assessed as reduction in cell viability measured after 48 hrs by MTT assay; assay type: cell-based; conditions: Homo sapiens, HEK293, 48 h
[10] = Neurotoxicity in BALB/c mouse assessed as change in noradrenaline level at 12 umol/kg, ip administered every two days for 14 days measured post last dose by LC-MS analysis; assay type: toxicity, organism-based; conditions: in vivo, 336 h, dose 12 µmol/kg, time 14 day
[11] = Neurotoxicity in BALB/c mouse assessed as change in DOPAC level at 12 umol/kg, ip administered every two days for 14 days measured post last dose by LC-MS analysis; assay type: toxicity, organism-based; conditions: in vivo, 336 h, dose 12 µmol/kg, time 14 day
[12] = Neurotoxicity in BALB/c mouse assessed as increase in pain sensitivity at 12 umol/kg, ip administered every two days for 14 days by cold water tail immersion test; assay type: toxicity, organism-based; conditions: in vivo, 336 h, dose 12 µmol/kg, time 14 day
[13] = molecular target: T1, 72 kDa type IV collagenase; assay: Drug metabolism in PBS buffer assessed as MMP2 (unknown origin)-mediated CPP-PTX formation at 0.5 uM measured after 2 hrs by LC-MS analysis; assay type: ADME
MCF7 [14] = assay: Cell cycle arrest in human MCF7 cells assessed as increase in accumulation at G2/M-phase at IC50 measured after 4 hrs by […] flow cytometry; assay type: functional
[15] = Toxicity in human MCF7 cells xenografted in BALB/c nude mouse assessed as morphological changes in liver at 8 to 12 umol/kg, ip administered every two days for two weeks measured post last dose by H and E staining based histological analysis; assay type: organism-based; conditions: in vivo, 336 h, dose 8-12 µmol/kg, time 2 weeks
[16] = Neurotoxicity in BALB/c mouse assessed as change in acetylcholine level at 12 umol/kg, ip administered every two days for 14 days measured post last dose by LC-MS analysis; assay type: toxicity, organism-based; conditions: in vivo, 336 h, dose 12 µmol/kg, time 14 day
[17] = Drug conversion in tumor of BALB/c nude mouse xenografted with human MCF7 cells assessed as PTX formation at 8 to 12 umol/kg, ip measured after 2 hrs by LC-MS analysis; assay type: ADME, organism-based, Neoplasm; conditions: in vivo, dose 8-12 µmol/kg
MCF7 [18] = assay: Induction of apoptosis in human MCF7 cells xenografted in ip dosed BALB/c nude mouse assessed as up regulation of Bax expression administered every two days for two weeks measured post last dose by Western blot analysis; assay type: functional, organism-based; conditions: dose 8-12 µmol/kg, time 2.0 weeks
[19] = Drug conversion in liver of BALB/c nude mouse xenografted with human MCF7 cells assessed as PTX formation at 8 to 12 umol/kg, ip measured after 2 hrs by LC-MS analysis; assay type: ADME, organism-based; conditions: in vivo, dose 8-12 µmol/kg
MCF7 [20] = assay: Induction of apoptosis in human MCF7 cells xenografted in ip dosed BALB/c nude mouse assessed as up regulation of cleaved caspase-9 expression administered every two days for two weeks measured post last dose by Western blot analysis; assay type: functional, organism-based; conditions: dose 8-12 µmol/kg, time 2.0 weeks
[21] = Neurotoxicity in BALB/c mouse assessed as change in dopamine level at 12 umol/kg, ip administered every two days for 14 days measured post last dose by LC-MS analysis; assay type: toxicity, organism-based; conditions: in vivo, 336 h, dose 12 µmol/kg, time 14 day
MCF7 [22] = assay: Induction of apoptosis in human MCF7 cells xenografted in ip dosed BALB/c nude mouse assessed as down regulation of Bcl2 expression administered every two days for two weeks measured post last dose by Western blot analysis; assay type: functional, organism-based; conditions: dose 8-12 µmol/kg, time 2.0 weeks
MCF7 [23] = assay: Antitumor activity against human MCF7 cells xenografted in BALB/c nude mouse assessed as reduction in tumor volume at 8 umol/kg, ip administered every two days for two weeks relative to control; assay type: functional; set-up: scale not given: the % may be the effect or the level left; conditions: dose 8 µmol/kg; time 2 weeks
[24] = Toxicity in human MCF7 cells xenografted in BALB/c nude mouse assessed as morphological changes in lung at 8 to 12 umol/kg, ip administered every two days for two weeks measured post last dose by H and E staining based histological analysis; assay type: organism-based; conditions: in vivo, 336 h, dose 8-12 µmol/kg, time 2 weeks
[25] = Neurotoxicity in BALB/c mouse assessed as change in glutamine level at 12 umol/kg, ip administered every two days for 14 days measured post last dose by LC-MS analysis; assay type: toxicity, organism-based; conditions: in vivo, 336 h, dose 12 µmol/kg, time 14 day
NCM460 = assay: Cytotoxicity against human NCM460 cells assessed as reduction in cell viability measured after 48 hrs by MTT assay; assay type: cell-based; conditions: NCM460, 48 h
[26] = Cytotoxicity against human A2780/PTX cells assessed as reduction in cell viability measured after 48 hrs by MTT assay; assay type: functional, cell-based
[27] = Drug conversion in liver of BALB/c nude mouse xenografted with human MCF7 cells assessed as T2-PTX formation at 8 to 12 umol/kg, ip measured after 2 hrs by LC-MS analysis; assay type: ADME, organism-based; conditions: in vivo, dose 8-12 µmol/kg
[28] = Neurotoxicity in BALB/c mouse assessed as change in serotonin level at 12 umol/kg, ip administered every two days for 14 days measured post last dose by LC-MS analysis; assay type: toxicity, organism-based; conditions: in vivo, 336 h, dose 12 µmol/kg, time 14 day
[29] = Myelosuppression in BALB/c mouse assessed as change in granulocyte count at 12 umol/kg, ip administered every two days for 14 days measured post last dose; assay type: ADME, organism-based; conditions: in vivo, 336 h, dose 12 µmol/kg, time 14 day
[30] = Toxicity in human MCF7 cells xenografted in BALB/c nude mouse assessed as change in body weight at 8 to 12 umol/kg, ip administered every two days for two weeks; assay type: organism-based; conditions: in vivo, 336 h, dose 8-12 µmol/kg, time 2 weeks
[31] = Drug conversion in serum of BALB/c nude mouse xenografted with human MCF7 cells assessed as PTX formation at 8 to 12 umol/kg, ip measured after 2 hrs by LC-MS analysis; assay type: ADME, organism-based; conditions: in vivo, dose 8-12 µmol/kg
MCF7 [32] = assay: Antitumor activity against human MCF7 cells xenografted in ip dosed BALB/c nude mouse assessed as tumor shrinkage administered every two days for two weeks; assay type: functional, organism-based; conditions: dose 8-12 µmol/kg, time 2.0 weeks
[33] = Drug conversion in kidney of BALB/c nude mouse xenografted with human MCF7 cells assessed as T2-PTX formation at 8 to 12 umol/kg, ip measured after 2 hrs by LC-MS analysis; assay type: ADME, organism-based; conditions: in vivo, dose 8-12 µmol/kg

Drug metabolism [1]: Metabolite_Notdetected | Stabilty [6]: Stable | Drug metabolism [9]: Metabolite_Detected | Drug metabolism [13]: Metabolite_Detected | Drug metabolism [17]: Metabolite_Detected | Drug metabolism [19]: Metabolite_Notdetected | Drug metabolism [27]: Metabolite_Notdetected | Drug metabolism [31]: Metabolite_Notdetected | Drug metabolism [33]: Metabolite_Notdetected
SMILES: CC(=O)O[C@H]1C(=O)[C@@]2(C)[C@H]([C@H](OC(=O)c3ccccc3)[C@]3(O)C[C@H](OC(=O)[C@H](OC(=O)OCCSSC[C@H](N)C(=O)N[C@@H](CC(C)C)C(=O)N[C@@H](CC(C)C)C(=O)N[C@@H](CCCCN)C(=O)N[C@@H](CCCNC(=N)N)C(=O)N[C@@H](Cc4ccccc4)C(=O)N[C@@H](Cc4ccccc4)C(=O)N[C@@H](CCCCN)C(=O)N[C@@H](CCCCN)C(=O)N[C@@H](Cc4ccccc4)C(=O)NCC(=O)N[C@@H](C)C(=O)N[C@@H](CC(C)C)C(=O)NCC(=O)N[C@@H](CC(C)C)C(=O)N4CCC[C@H]4C(=O)NCC(=O)N4CCC[C@H]4C(=O)N[C@@H](CCCNC(=N)N)C(=O)N[C@@H](CC(C)C)C(=O)NCC(=O)N[C@@H](Cc4ccc(O)cc4)C(=O)N[C@@H](CO)C(=O)N[C@@H](Cc4c[nH]c5ccccc45)C(=O)N[C@@H](CCCCN)C(=O)NC(=O)C4CCC(=O)N4)[C@@H](NC(=O)c4ccccc4)c4ccccc4)C(C)=C1C3(C)C)[C@]1(OC(C)=O)CO[C@@H]1C[C@@H]2O (stereo not given in full) (H-C(X1)LLKRFFKKFGALGLPGPRLGYSW-X2)
Activity [2]: Non-Toxic | Activity [3]: Non-Toxic | Activity (MCF7 [4]): Active | Activity (MCF7 [5]): 83.4% | Activity (MCF7 [7]): inactive | Activity [8]: Non-Toxic | pIC50 (HEK293): 7.18 | Activity [10]: Non-Toxic | Activity [11]: Non-Toxic | Activity [12]: Non-Toxic | Activity (MCF7 [14]): Active | Activity [15]: Non-Toxic | Activity [16]: Non-Toxic | Activity (MCF7 [18]): Dose-dependent effect | Activity (MCF7 [20]): Dose-dependent effect | Activity [21]: Non-Toxic | Activity (MCF7 [22]): Dose-dependent effect | Activity (MCF7 [23]): 77.2% | Activity [24]: Non-Toxic | Activity [25]: Non-Toxic | pIC50 (NCM460): < 7.10 | pIC50 [26]: 6.10 | Activity [28]: Non-Toxic | Activity [29]: Non-Toxic | Activity [30]: Non-Toxic | Activity (MCF7 [32]): Dose-dependent effect
